Experimental data from patent publication US20250109275A1, “AMINE FATTY ACID ADDUCTS AS TIRE COMPOUNDING ADDITIVES” (priority 2023, published 2025).

Assays:
[1] = Pour point of the additive; format: physicochemical; design: unit not given here; conditions: neat additive
[2] = Flash point of the additive; format: physicochemical; conditions: neat additive
[3] = neat additive
Text: Additional characteristics of the exemplary additives and controls are shown below in Table 9. […] The Control and Control 2 are the presented formula without an additive included. […] Blend 1 is the presented formula with a blend of rosin ester tackifier and fatty acid ester used as a control additive. For Control 2 and Inventive Ex. 1-Adj, the first pass and second pass were mixed in the mixer, but the final pass was mixed on the mill. Inventive Ex. 1-Adj was split into three (3) to allow for three (3) different cure adjustments to try to increase the Ts2 (the […] time for the viscosity to increase 2 units above minimum torque (ML)), slightly reduce Tc90 (the time it takes to get to 90% of the maximum state of cure/cross-linking (MH or maximum torque)), and increase the maximum torque (MH) to more closely match the Moving Die Rheometer (MDR) curve of the control compound.

Compound | Pour Point [1] | Flash Point [2] | Water Solubility [3]
CCCCCCCC/C=C\CCCCCCCC(=O)NCCNCCN [Inventive Ex. 1, diethylenetriamine (DETA) oleic acid amidoamine] | 36 | >200 C. | 
CCCCCCCC/C=C\CCCCCCCC1=NCCN1CCN [Inventive Ex. 2, diethylenetriamine (DETA) oleic acid imidazoline] | −27 | >200 C. | Partial ~2%
CCCCCCCC/C=C\CCCCCCCC(=O)NCCNCCNC(=O)CCCCCCC/C=C\CCCCCCCC [Inventive Ex. 3, diethylenetriamine (DETA) oleic acid bisamide] | 78 | >200 C. | none

Further lines, with some results ahead:

Pour Point [1] | Flash Point [2] | Compound | Water Solubility [3]
0 | 113 C. | CCCCCCCC/C=C\CCCCCCCC(=O)NCCCN(C)C [Inventive Ex. 6, dimethylaminopropylamine (DMAPA) oleic acid amidoamine] | 
−12 | >200 C. | tetraethylenepentamine (TEPA) oleic acid amidoamine [Inventive Ex. 5] | 
